{"source": "patent US7858659B2", "about": "“Redox therapy for tumors” (priority 2003, dated 2010)", "origin": "cited, not measured here", "key": {"U937 cancer cells": {"tested_on": "U937 cancer cells", "conditions": "Lizard et al. 1998; cited from earlier work"}, "[1]": {"tested_on": "prostate cancer cell lines", "conditions": "green tea phenols; cited from earlier work"}, "malignant cells [2]": {"tested_on": "malignant cells", "conditions": "Table 1; BSO: [Kito]; cited from earlier work"}, "malignant cells [3]": {"tested_on": "malignant cells", "conditions": "cited from earlier work; for Effective Concentration in vitro: Example 4 table; for Concentration: Table 1"}, "adults": {"tested_on": "adults", "conditions": "cited from earlier work"}, "[4]": {"conditions": "Example 4 table; cited from earlier work"}, "malignant cells [5]": {"tested_on": "malignant cells", "conditions": "BSO by itself; Dai et al. 1999; cited from earlier work"}, "neuroblastoma cells": {"tested_on": "neuroblastoma cells", "conditions": "Nicole et al. 1998; cited from earlier work"}, "[6]": {"conditions": "cited from earlier work; for Solubility: Example 4 table"}, "mice": {"tested_on": "mice", "conditions": "mouse, in vivo; cited from earlier work"}, "[7]": {"target": "T1, glutathione reductase (GR) (Mus musculus, UniProt P47791)", "T1 construct": "recovery of enzyme activity in exponentially growing murine leukemia (L1210) cells treated with 1,3-bis(2-chloroethyl)-1-nitrosourea", "T1 sequence (P47791 27-500)": "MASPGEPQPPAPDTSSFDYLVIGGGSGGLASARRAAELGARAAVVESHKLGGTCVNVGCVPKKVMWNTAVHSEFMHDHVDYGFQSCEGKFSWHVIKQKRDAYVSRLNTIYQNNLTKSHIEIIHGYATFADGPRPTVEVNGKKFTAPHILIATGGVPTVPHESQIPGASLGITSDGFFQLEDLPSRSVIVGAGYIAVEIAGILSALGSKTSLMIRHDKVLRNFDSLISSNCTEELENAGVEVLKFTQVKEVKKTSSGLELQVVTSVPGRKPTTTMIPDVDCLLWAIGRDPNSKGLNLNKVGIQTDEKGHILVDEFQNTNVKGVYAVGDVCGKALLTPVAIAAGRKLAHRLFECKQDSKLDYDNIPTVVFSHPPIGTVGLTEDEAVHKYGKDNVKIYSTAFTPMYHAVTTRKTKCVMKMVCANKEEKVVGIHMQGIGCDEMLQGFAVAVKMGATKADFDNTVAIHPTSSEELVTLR", "conditions": "Cohen 1988, cited from earlier work"}, "mice/rats": {"tested_on": "mice/rats", "conditions": "cited from earlier work"}, "rats": {"tested_on": "rats", "conditions": "cited from earlier work"}, "A-427 and A-172": {"tested_on": "A-427 and A-172", "conditions": "various cancer cell lines, such as A-427 and A-172; cited from earlier work"}, "[8]": {"tested_on": "normal human bronchial fibroblasts and human bronchial epithelial cells", "conditions": "cited from earlier work"}, "[9]": {"tested_on": "Jurkat T-cell leukemia cells", "conditions": "Sen et al. 1999; cited from earlier work"}, "normal lymphocytes": {"tested_on": "normal lymphocytes", "conditions": "Sen et al. 1999; cited from earlier work"}}, "note": "Where two headings read alike, the source gives them in different places.", "data": [{"smiles": "CC(C)CCC[C@@H](C)[C@H]1CC[C@H]2[C@@H]3C(=O)C=C4C[C@@H](O)CC[C@]4(C)[C@H]3CC[C@]12C", "note": "[7-ketocholesterol]", "values": [{"measurement": "apoptosis", "setting": "U937 cancer cells", "result": "induced apoptosis"}]}, {"smiles": "O=C(O[C@@H]1Cc2c(O)cc(O)cc2O[C@@H]1c1cc(O)c(O)c(O)c1)c1cc(O)c(O)c(O)c1", "note": "[(−)-epigallocatechin-3-gallate]", "values": [{"measurement": "apoptosis", "setting": "[1]", "result": "induced apoptosis"}]}, {"smiles": "CCCCS(=N)(=O)CCC(N)C(=O)O", "note": "(stereo not drawn) [BSO, buthionine sulfoximine]", "values": [{"measurement": "apoptosis", "setting": "malignant cells [2]", "result": "Enhancement [Kito]"}, {"measurement": "Effective Concentration in vitro", "setting": "malignant cells [3]", "result": 100, "unit": "µM"}, {"measurement": "Concentration", "setting": "malignant cells [3]; disulfiram: [Cen]", "result": "10 to 25", "unit": "µM"}, {"measurement": "Toxicity: nausea/vomiting", "setting": "adults; [Bailey]", "result": "occasional"}, {"measurement": "Toxicity", "setting": "[4]", "result": "10,000 microM"}, {"measurement": "apoptosis", "setting": "malignant cells [5]", "result": "did not induce significant apoptosis"}, {"measurement": "decrease in [GSH] in the cell", "setting": "malignant cells [5]", "result": 70, "unit": "%"}, {"measurement": "apoptosis", "setting": "neuroblastoma cells", "result": "induced apoptosis"}, {"measurement": "decrease of GSH content", "setting": "neuroblastoma cells", "result": 98, "unit": "%"}, {"measurement": "Solubility", "setting": "[6]", "result": "soluble"}, {"measurement": "Solubility [Merck]", "setting": "[6]; Table 1, in words", "result": "Soluble"}, {"measurement": "Toxicity", "setting": "mice", "result": "9.6 g/kg (mice) →"}]}, {"smiles": "O=NN(CCCl)C(=O)NCCCl", "note": "[Carmustine, N,N′-bis(2-chloroethyl)-N-nitrosourea]", "values": [{"measurement": "apoptosis", "setting": "malignant cells [2]", "result": "Induction"}, {"measurement": "Effective Concentration in vitro", "setting": "malignant cells [3]", "result": 0.05, "unit": "µM"}, {"measurement": "Concentration", "setting": "malignant cells [3]; [Cohen & Duval]", "result": 50, "unit": "ng/mL"}, {"measurement": "activity of GR restored", "setting": "[7]; 12 hours, de novo synthesis", "result": 50, "unit": "%"}, {"measurement": "GR restored", "setting": "[7]; 24 hours, de novo synthesis", "result": 70, "unit": "%"}, {"measurement": "concentration with which GR is inhibited", "setting": "[7]; only carmustine present", "result": 10, "unit": "µM"}, {"measurement": "time within which GR is inhibited", "setting": "[7]; with 10 μM", "result": "½"}, {"measurement": "Solubility", "setting": "[6]", "result": 40, "unit": "µM"}, {"measurement": "Solubility [Merck]", "setting": "[6]; Table 1", "result": 4, "unit": "mg/L"}, {"measurement": "LD50 [Merck]", "setting": "mice/rats", "result": "25 to 30", "unit": "mg/kg"}]}, {"smiles": "CCN(CC)C(=S)SSC(=S)N(CC)CC", "note": "[Disulfiram]", "values": [{"measurement": "Toxicity", "setting": "adults; adults", "result": "3 g (adults)"}, {"measurement": "LD50 [Merck]", "setting": "rats", "result": "8600 mg/kg (rats)"}, {"measurement": "Toxicity", "setting": "[4]", "result": "10,000 microM"}, {"measurement": "Solubility", "setting": "[6]", "result": "2,000 microM"}, {"measurement": "Solubility [Merck]", "setting": "[6]; Table 1", "result": 0.02, "unit": "g/100 ml"}]}, {"smiles": "C=CC=O", "note": "[acrolein]", "values": [{"measurement": "cytotoxicity", "setting": "A-427 and A-172", "result": "induced cytotoxicity"}, {"measurement": "toxicity to normal cells", "setting": "[8]", "result": "highly toxic"}]}, {"smiles": "O=C(O)CCCCC1CCSS1", "note": "(stereo not drawn) [α-lipoic acid]", "values": [{"measurement": "apoptosis", "setting": "[9]", "result": "underwent apoptosis"}, {"measurement": "apoptosis", "setting": "normal lymphocytes", "result": "did not"}]}]}
